Entries after “also recorded” stand apart in the source; their conditions may differ.
How the values were obtained:
[1] = system: SK-N-SH human neuroblastoma cells; assay: Toxicity by MTT cell viability and LDH release assays; format: cell-based; details: 100 μM
Procedure: The effect of 0.01-100 μmol/L concentrations of investigational compounds was tested on the viability of the N2a murine neuroblastoma cell line (American Type Culture Collection, Manassas, Va.). N2a cells were grown in Eagle's minimal essential medium with the addition of 10% fetal bovine serum, streptomycin and gentomycin (Sigma, St. Louis, Mo.), harvested with 2% trypsin and plated at 10,000 cells/100 μL per well in flatbottom, 96-well microtiter plates. The cells were allowed to attach to the plate overnight in an incubator (37° C., 5% CO2) and in the following morning stocks of investigational compounds (50 mmol/L stock diluted in DMSO) were added to cells to achieve the final concentration 0.01-100 μmol/L. Adequate amounts of DMSO (Dimethyl sulfoxide, Sigma, St. Louis, Mo.) were added to control cells. Cells were grown in the presence of investigational compounds for 48 h and then their viability was assessed using a metabolic assay, which is based on cleavage of the yellow tetrazolium salt (MTT) to purple formazan crystals by viable cells. The MTT assay (Roche Molecular Biochemicals, Indianapolis, Ind.) was performed according to the manufacturer's instructions. The results from cell culture neurotoxicity studies were evaluated by one-way analysis of variance, followed by a Dunnett's test as a post hoc analysis.
As shown in FIG. 2 (MTT assay), the compounds were tested for toxicity in SK-N-SH human neuroblastoma cells using MTT cell viability and LDH release (membrane integrity) assays.

Aβ40 [2] = molecular target: T1, Aβ40 (Homo sapiens, UniProt P05067); assay: Thioflavin-T fibrillization assay; format: biochemical
T1 construct: host or cells: chemical solid-phase peptide synthesis (no expression host)
Description: Synthetic Aβ 1-40 peptide (sequence: […]) was synthesized at the W.M. Keck Foundation Facility (Yale University, New Haven, Conn.) by solid-phase technique on a p-methyl-benzhydrylamine resin, using a Biosearch SAM 2 synthesizer and purified by high performance liquid chromatography (HPLC) with the use of a reverse-phase support medium (Delta-Bondapak) on a 0.78×30 cm column with a 0-66% linear gradient of acetonitrile in 0.1% (v/v) trifluroacetic acid, as previously described. The peptide content of the eluate was monitored by measurement of its absorption at 214 nm. To verify the sequence and purity of the peptide, linear, time-of-flight mass spectrometry was performed at the Skirball Institute at New York University. For aggregation studies the peptide was diluted in 1,1,1,3,3,3-hexafluoro-2-propanol (HFIP; Sigma St. Loius, Mo.) at a concentration of 10 mM/mL, aliquoted and lyophilized. HFIP treatment renders peptides monomeric with minimal β-sheet content. Lyophilized peptides were stored at −80° C. and resuspended immediately prior to each experiment in the appropriate diluent.
The effect of compounds of the present invention on aggregation of Aβ 1-40 peptide was tested using a Thioflavin-T assay according to previously published methods. Aggregation of Aβ 1-40 incubated alone was measured for comparison. Aβ 1-40 was HFIP treated (as described above) and reconstituted in 100 mM Tris buffer (pH 7.4) to obtain a 100 μmol/L concentration. Stock of investigational compounds (50 mmol/L stock diluted in DMSO) was added to Aβ 1-40 to achieve of a concentration 10 or 100 μmol/L of investigational compound in 100 μmol/L of Aβ 1-40. All incubations were performed over a period of 7 days at 37° C. and the incubation mixture was slowly mixed for 6 hours every 24 h. At the conclusion of the experiment samples containing 15 μg of Aβ 1-40 with and without investigational compounds were added to 1 mL of 50 mM glycine, pH 9.2 and 2 μM of Thioflavin-T (Sigma Chemical, Co.; St. Louis, Mo.). Fluorescence was measured at an excitation of 435 nm and an emission of 485 nm in a Perkin-Elmer LS-50B fluorescence spectrophotometer (Perkin Elmer Instruments, Shelton, Conn.). A time scan of fluorescence was performed and three values after the decay reached a plateau (280, 290, 300 seconds) were averaged. The background fluorescence of 40 μL of Tris buffer added to 2 μM/L of Thioflavin-T solution was subtracted. Samples were run in duplicate. Differences in amount of fibrils formed in the presence of investigational compounds were evaluated by means of one-way ANOVA followed by a Dunnet post-hoc test using Statistica (version 6.1, StatSoft Inc., OK).
(§1) […] monomerized synthetic Aβ40 was incubated in 0.1M Tris pH 7.0, T=37° C. for 8 days in the presence of 0-100 μM concentration of compounds. […] An arrow indicates Aβ monomers clustered in ill developed protofibril. (C) Oligomerization assay. ARN4261 and ARN4224 reduced the amount of Aβ oligomers by 78% and 74%, respectively p<0.001. A compound 69b (GKLVFNmgA) was used as a positive control. 69b is homologous to Aβ sequence 17-21 and contains N-methyl glycine (Nmg), which renders it capable of anti-fibrillization and anti-oligomerization effect. (D) Principle of oligomerization assay. 100 μM Aβ40 was aggregated alone or with the addition of 10 μM of tested compounds [1:10 compound: Ab ratio] for 24 h in conditions promoting oligomers assembly, i.e., DMEM/F-12 medium+0.2% SDS, T=4° C. Prior to SDS-PAGE in non-reducing conditions samples were treated with glutaraldehyde. A strong smear of Aβ oligomers is seen between 37 and 70 KDa markers (arrows) in lane 2, and a dense band below the 25 KDa marker reflects Aβ monomers non-dissociated by 10% polyacrylamide gel. No oligomers above 37 KDa marker are seen in lane 1 containing only Aβ monomers run as a control. […] (E) TEM of Aβ oligomers. […] Yellow arrowhead indicates smaller oligomers.

Aβ40 [3] = molecular target: T1, Aβ40; assay: Oligomerization assay; format: biochemical; details: 100 μM Aβ40, 10 μM compound, 24 h; for amount of oligomers on SDS-PAGE: lanes 3-5
Procedure: as §1

APP [4] = assay: APP, C99, C83 and sAPP levels in 751APPSW CHO cells (immunoblot, immunostaining); format: cell-based, human; details: 751APPSW CHO clone
APP [5] = assay: Acute treatment experiment: brain soluble Aβ40, APP, C99 and C83; format: in vivo, mice; details: five days ip, ARN2966 50 mg/kg/day, Compound E 3 mg/kg/day
Procedure: Furthermore, we conducted an acute treatment experiment where six months old female APPSW/PS1dE9 mice (n=3/group) were treated for five days with ARN2966 (50 mg/kg/day), Compound E (3 mg/kg/day) or Vehicle injected intraperitoneally. Mice were killed three hours after the last injections. The level of soluble Aβ40 was measured in the brain aliquots following diethylamine (DEA) extraction. It was lower in ARN2966 and Compound E treated groups by 39% (p<0.05) and 60% (p<0.05) comparing to vehicle treated mice, respectively (p<0.05; FIG. 6E).
FIGS. 6.(A, B) ARN2966 treatment reduces load of Aβ plaques (n=10 ARN2966, n=15 Vehicle). (B) Representative photomicrograph of Th-S stained brain sections from vehicle and ARN2966 treated 10 month old, female APPSW/PS1dE9reveal a difference in the load of Aβ plaques. […] (D) Reduced Aβ40 and Aβ42 levels in FA extracted brain homogenate, which represent the total brain content of Aβ peptides in ARN2966 treated animals (ELISA). (E) Reduced soluble Aβ40 level in DEA extracted brain homogenate, of ARN2966 and Compound E treated mice (ELISA). […] Aβ concentrations in (C) (D) and (E) are given per gram of wet brain. All values are given as mean±SEM. Statistical analysis was done using two-tailed unpaired t-test, following confirmation of normal distribution of data using Shapiro-Wilk test.

T1 sequence (P05067 672-711): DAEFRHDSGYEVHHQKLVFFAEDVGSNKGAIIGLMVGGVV

COc1ccc(/C=N/Nc2nc3ccccc3n2C)cc1O [ARN4224]
toxicity in both MTT and LDH release assays [1]: showed toxicity | EC50 (Aβ40 [2]; 100 μM HFIP monomerized synthetic Aβ40, 0.1M Tris pH 7.0, 37° C., 8 days, 0-100 μM compound, read-out: EC50 of fibril reduction): 44 µM | Emax (Aβ40 [2]; pH 7, read-out: EMAX (% of maximal fibril reduction)): 55% | reduction of the amount of Aβ oligomers (Aβ40 [3]; DMEM/F-12 + 0.2% SDS, 4° C.): 74% | amount of oligomers on SDS-PAGE (Aβ40 [3]): reduced amount of oligomers

C[C@H](NC(=O)Cc1cc(F)cc(F)c1)C(=O)N[C@H]1N=C(c2ccccc2)c2ccccc2N(C)C1=O [Compound E, (S,S)-2-[2-(3,5-difluorophenyl)-acetylamino]-N-(1-methyl-2-oxo-5-phenyl-2,3-dihydro-1H-benzo[e][1,4]diazepin-3-yl)-propionamide, reference compound]
level of APP FL, C99 and C83 in cell lysates (APP [4]): some accumulation of APP FL, and substantial accumulation of C99 and C83; also recorded: modestly increased the APP FL level and substantially increased levels of C83 and C99 | sAPP (sAPPα and total sAPP stub) in conditioned media (APP [4]): increased level of sAPP stubs | APP, C99 and C83 signal in brain homogenate (western immunoblotting) (APP [5]): modest increase in C99 and C83 signal | lowering of soluble Aβ40 (DEA extraction) in brain vs vehicle (APP [5]; killed three hours after last injection): 60%

C[C@H](NC(=O)Cc1cc(F)cc(F)c1)C(=O)N[C@H](C(=O)OC(C)(C)C)c1ccccc1 [Compound D, N-[N-(3,5-difluorophenacetyl)-L-alanyl]-S-phenylglycine t-butyl ester, reference compound]
level of APP FL, C99 and C83 in cell lysates (APP [4]): some accumulation of APP FL, and substantial accumulation of C99 and C83; also recorded: modestly increased the APP FL level and substantially increased levels of C83 and C99

GKLVFNmgA [69b, reference compound]
amount of oligomers on SDS-PAGE (Aβ40 [3]): reduced amount of oligomers

Source: patent publication US8658677B2, “Pyridyl-2-methylamino compounds, compositions and uses thereof” (Aria Neurosciences Inc., priority 2011, dated 2014)
